Experimental findings from patent publication US10076519B2 (CYTOKINETICS, INC., priority 2010, dated 2018) are described below.

The subject of the first test is rabbit skeletal myofibrils (fast skeletal myofibrils). The test is described as follows: Activation of fast skeletal myofibrils (PUMA assay, PK/LDH-coupled ATPase at pCa25). It counts as biochemical. The following applies: AC1.4 determined according to the procedure of Example 39; reported as class symbols. The method, boiled down: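 ATPase activity of Triton-washed rabbit skeletal myofibrils, roughly 90% fast fibres, tracked by NADH loss at 340 nm through a PK/LDH-coupled ADP-regenerating system. Calcium set to 25% of maximal activity (pCa25), in PIPES 12 mM pH 6.8 with 2 mM MgCl2 and 1 mM DTT; AC1.4 reported.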
As to `NC(=O)c1cccc(-c2ccc(NCC3(c4ccccc4Cl)CC3)nn2)c1` [3-[6-({[(2-chlorophenyl)cyclopropyl]meth-yl}amino)pyridazin-3-yl]benzamide], the “Mean AC1.4” value was “A (A=<1 uM)”.

As to `CC(C)(CNc1ccc(-c2cc(F)cc(C(N)=O)c2)nn1)c1ccc(F)cc1` [3-fluoro-5-(6-{[2-(4-fluorophenyl)-2-methylpropyl]amino}pyridazin-3-yl)benzamide], the “Mean AC1.4” value is “B (B=1-10 uM)”.

In the case of `NC(=O)c1cccc(-c2ccc(NCCc3ccccn3)nn2)c1` [3-{6-[(2-(2-pyridyl)ethyl)amino]pyridazin-3-yl}benzamide], the “Mean AC1.4” value is reported as “D (D=>20 uM)”.

Regarding `NC(=O)c1cccc(-c2ccc(NCCc3cccnc3)nn2)c1` [3-{6-[(2-(3-pyridyl)ethyl)amino]pyridazin-3-yl}benzamide], the “Mean AC1.4” value is “D (D=>20 uM)”.

Consider `NC(=O)c1cccc(-c2ccc(NCCc3ccncc3)nn2)c1` [3-{6-[(2-(4-pyridyl)ethyl)amino]pyridazin-3-yl}benzamide], for which the “Mean AC1.4” value is “D (D=>20 uM)”.

On to `CC(C)(CNc1ccc(-c2cccc(C(N)=O)c2)nn1)c1ncccn1` [3-{6-[(2-methyl-2-pyrimidin-2-ylpropyl)amino]pyridazin-3-yl}benzamide], for which the “Mean AC1.4” value is recorded as “D (D=>20 uM)”.

With `NC(=O)c1cccc(-c2ccc(NCCc3ccccc3)nn2)c1` [3-{6-[(2-phenylethyl)amino]pyridazin-3-yl}benzamide], the “Mean AC1.4” value was “D (D=>20 uM)”.

For the compound `CC(CNc1ccc(-c2cccc(C(N)=O)c2)nn1)c1ccccc1` (stereo not drawn) [3-{6-[(2-phenylpropyl)amino]pyridazin-3-yl}benzamide], the “Mean AC1.4” value is “B (B=1-10 uM)”.

`CC(CNc1ccc(-c2cccc(C(N)=O)c2)nn1)N1CCCCC1` (stereo not drawn) [3-{6-[(2-piperidylpropyl)amino]pyridazin-3-yl}benzamide]: the “Mean AC1.4” value is given as “D (D=>20 uM)”.

The test is the same for the next values; noted with them: median AC1.4 class, procedure of Example 39.
Turning to `NC(=O)c1cccc(-c2ccc(NC[C@]3(c4ncccc4F)C[C@H](F)C3)nn2)c1` [3-[6-({[3-fluoro-1-(3-fluoro(2-pyridyl))cyclobutyl]methyl}ami-no)pyridazin-3-yl]benzamide], the “Mean AC1.4” value was “A (A=<1 uM)”.

For the compound `N#Cc1cccc(-c2ccc(NC[C@]3(c4ncccc4F)C[C@H](F)C3)nn2)c1` [3-[6-({[3-fluoro-1-(3-fluoro(2-pyridyl))cyclobutyl]methyl}ami-no)pyridazin-3-yl]benzenecarbonitrile], the “Mean AC1.4” value is on record as “B (B=1-10 uM)”.

For the compound `NS(=O)(=O)c1cccc(-c2ccc(NC[C@]3(c4ncccc4F)C[C@H](F)C3)nn2)c1` [3-[6-({[3-fluoro-1-(3-fluoro(2-pyridyl))cyclobutyl]methyl}ami-no)pyridazin-3-yl]benzenesulfonamide], the “Mean AC1.4” value is “B (B=1-10 uM)”.

Take `O=C(O)c1cccc(-c2ccc(NC[C@]3(c4ncccc4F)C[C@H](F)C3)nn2)c1` [3-[6-({[3-fluoro-1-(3-fluoro(2-pyridyl))cyclobutyl]methyl}ami-no)pyridazin-3-yl]benzoic acid]: the “Mean AC1.4” value is recorded as “A (A=<1 uM)”.

As to `NC(=O)c1nc(-c2ccc(NCC3(c4ncccc4F)CCC3)nn2)no1` [3-[6-({[(3-fluoro-2-pyridyl)cyclobutyl]methyl}ami-no)pyridazin-3-yl]-1,2,4-oxadiazole-5-carboxamide], the “Mean AC1.4” value is recorded as “B (B=1-10 uM)”.

On to `O=c1[nH]nc(-c2ccc(NCC3(c4ncccc4F)CCC3)nn2)[nH]1` [3-[6-({[(3-fluoro-2-pyridyl)cyclobutyl]methyl}ami-no)pyridazin-3-yl]-1,2,4-triazolin-5-one], for which the “Mean AC1.4” value was “C (C=10-20 uM)”.

As to `O=c1cc(-c2ccc(NCC3(c4ncccc4F)CCC3)nn2)[nH][nH]1` [3-[6-({[(3-fluoro-2-pyridyl)cyclobutyl]methyl}ami-no)pyridazin-3-yl]-3-pyrazolin-5-one], the “Mean AC1.4” value was “B (B=1-10 uM)”.

Regarding `O=c1[nH]c(-c2cnc(-c3ccc(NCC4(c5ncccc5F)CCC4)nn3)s2)no1` [3-{2-[6-({[(3-fluoro-2-pyridyl)cyclobutyl]methyl}ami-no)pyridazin-3-yl]-1,3-thiazol-5-yl}-1,2,4-oxadiazolin-5-one], the “Mean AC1.4” value is listed as “B (B=1-10 uM)”.

As for `O=c1[nH]nc(-c2cnc(-c3ccc(NCC4(c5ncccc5F)CCC4)nn3)s2)[nH]1` [3-{2-[6-({[(3-fluoro-2-pyridyl)cyclobutyl]methyl}ami-no)pyridazin-3-yl]-1,3-thiazol-5-yl}-1,2,4-triazolin-5-one], the “Mean AC1.4” value was “A (A=<1 uM)”.

For the compound `O=c1[nH]nc(-c2cccc(-c3ccc(NCC4(c5ncccc5F)CCC4)nn3)c2)[nH]1` [3-{3-[6-({[(3-fluoro-2-pyridyl)cyclobutyl]methyl}ami-no)pyridazin-3-yl]phenyl}-1,2,4-triazolin-5-one], the “Mean AC1.4” value is reported as “B (B=1-10 uM)”.

In the case of `O=c1[nH]nc(-c2ccc(F)c(-c3ccc(NCC4(c5ncccc5F)CCC4)nn3)c2)[nH]1` [3-{4-fluoro-3-[6-({[(3-fluoro(2-pyridyl))cyclobutyl]methyl}ami-no)pyridazin-3-yl]phenyl}-1,2,4-triazolin-5-one], the “Mean AC1.4” value is given as “A (A=<1 uM)”.

`O=c1[nH]nc(-c2ccc(-c3ccc(NCC4(c5ncccc5F)CCC4)nn3)s2)[nH]1` [3-{5-[6-({[(3-fluoro-2-pyridyl)cyclobutyl]methyl}ami-no)pyridazin-3-yl]-2-thienyl}-1,2,4-triazolin-5-one]: the “Mean AC1.4” value was “A (A=<1 uM)”.

With `NC(=O)c1cccc(-c2ccc(NC3(c4nccs4)CCC3)nn2)c1` [3-{6-[(1,3-thiazol-2-ylcyclobutyl)amino]pyridazin-3-yl}benzamide], the “Mean AC1.4” value is “D (D=>20 uM)”.

In the case of `CC(C)(Nc1ccc(-c2cccc(C(N)=O)c2)nn1)c1ccccn1` [3-{6-[(1-methyl-1-(2-pyridyl)ethyl)amino]pyridazin-3-yl}benzamide], the “Mean AC1.4” value is “D (D=>20 uM)”.

On to `CC(C)(Nc1ccc(-c2cccc(C(N)=O)c2)nn1)c1ccccc1` [3-{6-[(1-methyl-1-phenylethyl)amino]pyridazin-3-yl}benzamide], for which the “Mean AC1.4” value was “B (B=1-10 uM)”.

In the case of `CC(C)(Nc1ccc(-c2cccc(C#N)c2)nn1)c1ccccc1` [3-{6-[(1-methyl-1-phenylethyl)amino]pyridazin-3-yl}benzenecarbonitrile], the “Mean AC1.4” value is reported as “B (B=1-10 uM)”.

`NC(=O)c1cccc(-c2ccc(NCC(F)(F)c3ccccn3)nn2)c1` [3-{6-[(2,2-difluoro-2-(2-pyridyl)ethyl)amino]pyridazin-3-yl}benzamide]: the “Mean AC1.4” value is “D (D=>20 uM)”.

Staying with this test, now noted: median AC1.4 reported as class; procedure of Example 39.
With `Cc1cc(NCC2(c3ncccc3F)CCC2)nnc1-c1cccc(C(N)=O)c1` [3-[6-({[(3-fluoro(2-pyridyl))cyclobutyl]methyl}ami-no)-4-methylpyridazin-3-yl]benzamide], the “Mean AC1.4” value is listed as “C (C=10-20 uM)”.

As for `Cc1cc(NCC2(c3ncccc3F)CCC2)nnc1-c1cccc(C#N)c1` [3-[6-({[(3-fluoro(2-pyridyl))cyclobutyl]methyl}ami-no)-4-methylpyridazin-3-yl]benzenecarbonitrile], the “Mean AC1.4” value is recorded as “C (C=10-20 uM)”.

Regarding `Cc1cc(C(N)=O)c(O)c(-c2ccc(NCC3(c4ncccc4F)CCC3)nn2)c1` [3-[6-({[(3-fluoro(2-pyridyl))cyclobutyl]methyl}ami-no)pyridazin-3-yl]-2-hydroxy-5-methylbenzamide], the “Mean AC1.4” value is on record as “B (B=1-10 uM)”.

In the case of `Cc1cc(C#N)c(O)c(-c2ccc(NCC3(c4ncccc4F)CCC3)nn2)c1` [3-[6-({[(3-fluoro(2-pyridyl))cyclobutyl]methyl}ami-no)pyridazin-3-yl]-2-hydroxy-5-methylbenzenecarbonitrile], the “Mean AC1.4” value is “B (B=1-10 uM)”.

For the compound `NC(=O)c1cccc(-c2ccc(NCC3(c4ncccc4F)CCC3)nn2)c1O` [3-[6-({[(3-fluoro(2-pyridyl))cyclobutyl]methyl}ami-no)pyridazin-3-yl]-2-hydroxybenzamide], the “Mean AC1.4” value is given as “A (A=<1 uM)”.

As to `CC1(C)C(=O)NN=C1c1ccc(NCC2(c3ncccc3F)CCC2)nn1` [3-[6-({[(3-fluoro(2-pyridyl))cyclobutyl]methyl}ami-no)pyridazin-3-yl]-4,4-dimethyl-2-pyrazolin-5-one], the “Mean AC1.4” value is on record as “D (D=>20 uM)”.

With `NC(=O)c1ccc(O)c(-c2ccc(NCC3(c4ncccc4F)CCC3)nn2)c1` [3-[6-({[(3-fluoro(2-pyridyl))cyclobutyl]methyl}ami-no)pyridazin-3-yl]-4-hydroxybenzamide], the “Mean AC1.4” value is “B (B=1-10 uM)”.

In the case of `O=C(O)c1ccc(O)c(-c2ccc(NCC3(c4ncccc4F)CCC3)nn2)c1` [3-[6-({[(3-fluoro(2-pyridyl))cyclobutyl]methyl}ami-no)pyridazin-3-yl]-4-hydroxybenzoic acid], the “Mean AC1.4” value is recorded as “C (C=10-20 uM)”.

On to `Cc1c(-c2ccc(NCC3(c4ncccc4F)CCC3)nn2)[nH][nH]c1=O` [3-[6-({[(3-fluoro(2-pyridyl))cyclobutyl]methyl}ami-no)pyridazin-3-yl]-4-methyl-3-pyrazolin-5-one], for which the “Mean AC1.4” value is “D (D=>20 uM)”.

Consider `Cc1cc(-c2cccc(C(N)=O)c2)nnc1NCC1(c2ncccc2F)CCC1` [3-[6-({[(3-fluoro(2-pyridyl))cyclobutyl]methyl}amino)-5-methylpyridazin-3-yl]benzamide], for which the “Mean AC1.4” value is reported as “D (D=>20 uM)”.

As for `NC(=O)CCc1cnc(-c2ccc(NCC3(c4ncccc4F)CCC3)nn2)s1` [3-{2-[6-({[(3-fluoro-2-pyridyl)cyclobutyl]methyl}ami-no)pyridazin-3-yl]-1,3-thiazol-5-yl}propanamide], the “Mean AC1.4” value is reported as “B (B=1-10 uM)”.

As to `O=C(O)CCc1cnc(-c2ccc(NCC3(c4ncccc4F)CCC3)nn2)s1` [3-{2-[6-({[(3-fluoro-2-pyridyl)cyclobutyl]methyl}ami-no)pyridazin-3-yl]-1,3-thiazol-5-yl}propanoic acid], the “Mean AC1.4” value is recorded as “B (B=1-10 uM)”.

As for `NC(=O)c1ccc(O)c(-c2ccc(N3CC4(c5ncccc5F)CC3C4)nn2)c1` [3-{6-[4-(3-fluoro(2-pyridyl))-2-azabicyclo[2.1.1]hex-2-yl]pyridazin-3-yl}-4-hydroxybenzamide], the “Mean AC1.4” value was “D (D=>20 uM)”.
